Earlier results as cited in patent publication US20230076527A1, “TREATMENT OF PAROXYSMAL NOCTURNAL HEMOGLOBINURIA” (Apellis Pharmaceuticals, Inc., priority 2020, published 2023).

system: complement activation; conditions: relative to compstatin amidated at the C-terminus; published data; cited from earlier work

| Substance | Activity over compstatin [xmore] |
| --- | --- |
| Ac-1CV(2-Igl)QDWGAHRCT-CONH2 [Ac-V42Igl/H9A] | 39 |
| Ac-ICV(1-Nal)QDWGAHRCT-COOH (N-acetyl, 1-Nal) [Ac V4(1-Nal)/H9A -OH] | 30 |
| Ac-ICV(2-Igl)QDWGAHRCT-COOH (N-acetyl, 2-Igl) [Ac-V42Igl/H9A -OH] | 37 |
| Ac-ICV(2-Nal)QDWGAHRCT-CONH2 (N-acetyl, C-amide, 2-Nal) [Ac-V4(2-Nal)/H9A] | 99 |
| Ac-ICV(2-Nal)QDWGAHRCT-COOH (N-acetyl, 2-Nal) [Ac V4(2-Nal)/H9A -OH] | 38 |
| Ac-ICV(Bpa)QDWGAHRCT-CONH2 (N-acetyl, C-amide, Bpa) [Ac-V4(Bpa)/H9A] | 86 |
| Ac-ICV(Bpa)QDWGAHRCT-COOH (N-acetyl, Bpa) [Ac-V4(Bpa)/H9A -OH] | 49 |
| Ac-ICVDhtQDWGAHRCT-COOH [Ac-V4Dht/H9A -OH] | 5 |
| Ac-ICVVQDWGHHRCT-CONH2 [Ac-compstatin] | 3 |
| Ac-ICVWQD(5fW)GAHRCT-CONH2 [Ac-V4W/W7(5fW)/H9A] | 121 |
| Ac-ICVWQDWGAHRCT-CONH2 (Ac-ICVWQDWGAHRCT-NH2; cysteine pairing not given here) [Ac-V4W/H9A] | 45 |
| Ac-ICVWQDWGAHRCdT-COOH [AC-V4W/H9A/T13dT -OH] | 55 |
| Ac-ICVYQDWGAHRCT-CONH2 [AC-V4Y/H9A] | 14 |
| H-GICV(6fW)QD(6fW)GAHRCTN-COOH (6-fluoro-Trp) [+G/V4(6fW)/W7(6fW)H9A+N -OH] | 126 |
